According to article PMC5736936, “Xylopine Induces Oxidative Stress and Causes G2/M Phase Arrest, Triggering Caspase-Mediated Apoptosis by p53-Independent Pathway in HCT116 Cells” (Oxidative Medicine and Cellular Longevity, 2017):

Assays:
[1] = tested on: B16-F10 (murine melanoma); assay: Cytotoxic activity, alamarBlue assay, 72 h; format: cell-based
Description: (§1) MCF7 (human breast carcinoma), HCT116 (human colon carcinoma), HepG2 (human hepatocellular carcinoma), SCC-9 (human oral squamous cell carcinoma), HSC-3 (human oral squamous cell carcinoma), HL-60 (human promyelocytic leukemia), K-562 (human chronic myelogenous leukemia), B16-F10 (murine melanoma), MRC-5 (human lung fibroblast), WT SV40 MEF (wild-type immortalized mouse embryonic fibroblast), and BAD KO SV40 MEF (BAD gene knockout immortalized mouse embryonic fibroblast) cell lines were obtained from the American Type Culture Collection (ATCC, Manassas, VA, USA). Cells were cultured in complete medium with appropriate supplements as recommended by ATCC. All cell lines were tested for mycoplasma using the Mycoplasma Stain Kit (Sigma-Aldrich) to validate the use of cells free from contamination. Primary cell culture of peripheral blood mononuclear cells (PBMC) was obtained by standard Ficoll density protocol. The Research Ethics Committee of the Oswaldo Cruz Foundation (Salvador, BA, Brazil) approved the experimental protocol (number 031019/2013). Cell viability was examined using trypan blue exclusion assay for all experiments.
(§2) Cell viability was quantified using the alamarBlue assay according to Ahmed et al.. Cells were inserted in 96-well plates for all experiments (7 × 10^4 cells/mL for adherent cells or 3 × 10^5 cells/mL for suspended cells in 100 μL of medium). After 24 h, xylopine was dissolved in dimethyl sulfoxide (DMSO) and added to each well and incubated for 72 h. […] Four (for cell lines) or 24 h (for PBMCs) before the end of incubation, 20 μL of a stock solution (0.312 mg/mL) of the alamarBlue (resazurin, Sigma-Aldrich Co., Saint Louis, MO, USA) was added to each well. Absorbance at 570 nm and 600 nm was measured using the SpectraMax 190 Microplate Reader (Molecular Devices, Sunnyvale, CA, USA), and the drug effect was quantified as the percentage of control absorbance.

[2] = tested on: HCT116 (human colon carcinoma); assay: Cytotoxic activity, alamarBlue assay, 72 h; format: cell-based;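 for Selectivity index: SI is noncancer IC50 (MRC-5 or PBMC) divided by cancer cell IC50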
Description: as §1, §2

[3] = tested on: HL-60 (human promyelocytic leukemia); assay: Cytotoxic activity, alamarBlue assay, 72 h; format: cell-based;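 for Selectivity index: SI is noncancer IC50 (MRC-5 or PBMC) divided by cancer cell IC50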
Description: as §1, §2

[4] = tested on: HSC3 (human oral squamous cell carcinoma); assay: Cytotoxic activity, alamarBlue assay, 72 h; format: cell-based
Description: as §1, §2

[5] = tested on: HepG2 (human hepatocellular carcinoma); assay: Cytotoxic activity, alamarBlue assay, 72 h; format: cell-based
Description: as §1, §2

[6] = tested on: K562 (human chronic myelogenous leukemia); assay: Cytotoxic activity, alamarBlue assay, 72 h; format: cell-based;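 for Selectivity index: SI is noncancer IC50 (MRC-5 or PBMC) divided by cancer cell IC50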
Description: as §1, §2

[7] = tested on: MCF7 (human breast carcinoma); assay: Cytotoxic activity, alamarBlue assay, 72 h; format: cell-based;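 for Selectivity index: SI is noncancer IC50 (MRC-5 or PBMC) divided by cancer cell IC50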
Description: as §1, §2

[8] = tested on: SCC9 (human oral squamous cell carcinoma); assay: Cytotoxic activity, alamarBlue assay, 72 h; format: cell-based
Description: as §1, §2

[9] = tested on: MRC5 (human lung fibroblast); assay: Cytotoxic activity, alamarBlue assay, 72 h (noncancer cells); format: cell-based; conditions: Homo sapiens
Description: as §1, §2

[10] = tested on: PBMC (human peripheral blood mononuclear cells); assay: as above; format: cell-based; conditions: Homo sapiens
Description: as §1, §2

HCT116 cells [11] = assay: Cell viability by trypan blue exclusion assay; format: cell-based, human; conditions: for reduction of the number of viable cells: HCT116, trypan blue
Description: as §1

HCT116 cells [12] = assay: Mitochondrial transmembrane potential (rhodamine 123); format: cell-based, human; conditions: HCT116, rhodamine 123, 24 h, p < 0.05
Experimental: Mitochondrial transmembrane potential was determined by the retention of the dye rhodamine 123 [9]. Cells were incubated with rhodamine 123 (5 μg/mL, Sigma-Aldrich Co.) at room temperature for 15 min in the dark and washed with saline. The cells were then incubated again in saline for 30 min in the dark and cell fluorescence was determined by flow cytometry as described above.

[13] = tested on: caspase-3 in HCT116 cells; assay: Caspase-3 activation assay (colorimetric, Ac-DEVD-pNA); format: cell-based, human; conditions: HCT116, 48 h, p < 0.05
Experimental: A Caspase-3 Colorimetric Assay Kit (Sigma-Aldrich Co.) was used to investigate caspase-3 activation in xylopine-treated HCT116 cells based on the cleavage of Ac-DEVD-pNA and the analysis was performed according to the manufacturer's instructions.

HCT116 cells [14] = assay: Cellular GSH level; format: cell-based, human; conditions: HCT116, 1 h
Experimental: A quantification kit for reduced glutathione (L-γ-glutamyl-L-cysteinyl-glycine, GSH, Sigma-Aldrich Co.) was used to investigate cellular GSH level in xylopine-treated HCT116 cells and the analysis was performed according to the manufacturer's instructions.

calf thymus DNA (ctDNA) = assay: DNA intercalation assay (ethidium bromide displacement); format: binding; conditions: 10 or 20 μM xylopine, 15 μg/mL ctDNA, 1.5 μM ethidium bromide
Experimental: DNA intercalation was assessed by examining the ability of xylopine to displace ethidium bromide from calf thymus DNA (ctDNA, Sigma-Aldrich Co.). The assay was conducted in 96-well plates and contained 15 μg/mL ctDNA, 1.5 μM ethidium bromide, and 10 or 20 μM xylopine in 100 μL saline solution. […] Fluorescence was measured using excitation and emission wavelengths of 320 and 600 nm, respectively.

COc1ccc2c(c1)C[C@@H]1NCCc3cc4c(c-2c31)OCO4 [XYL, xylopine]
Selectivity index ([1]; IC50(MRC5)/IC50(B16-F10)): 2.5 | Selectivity index ([1]; IC50(PBMC)/IC50(B16-F10)): 1.9 | IC50 ([1]; Mus musculus, B16-F10, alamarBlue, 72 h): 9.6 µM | IC50 ([2]; Homo sapiens, HCT-116, HCT116, alamarBlue, 72 h): 6.4 µM | Selectivity index ([2]; IC50(MRC5)/IC50(HCT116)): 3.8 | Selectivity index ([2]; IC50(PBMC)/IC50(HCT116)): 2.9 | IC50 ([3]; Homo sapiens, HL-60, alamarBlue, 72 h): 18.5 µM | Selectivity index ([3]; IC50(MRC5)/IC50(HL-60)): 1.3 | Selectivity index ([3]; IC50(PBMC)/IC50(HL-60)): 1 | IC50 ([4]; Homo sapiens, HSC-3, HSC3, alamarBlue, 72 h): 15.7 µM | Selectivity index ([4]; IC50(MRC5)/IC50(HSC-3)): 1.5 | Selectivity index ([4]; IC50(PBMC)/IC50(HSC-3)): 1.2 | IC50 ([5]; Homo sapiens, HepG2, alamarBlue, 72 h): 9.4 µM | Selectivity index ([5]; IC50(MRC5)/IC50(HepG2)): 2.6 | Selectivity index ([5]; IC50(PBMC)/IC50(HepG2)): 2 | IC50 ([6]; Homo sapiens, K562, alamarBlue, 72 h): 7.8 µM | Selectivity index ([6]; IC50(MRC5)/IC50(K-562)): 3.1 | Selectivity index ([6]; IC50(PBMC)/IC50(K-562)): 2.4 | IC50 ([7]; Homo sapiens, MCF7, alamarBlue, 72 h): 12 µM | Selectivity index ([7]; IC50(MRC5)/IC50(MCF7)): 2 | Selectivity index ([7]; IC50(PBMC)/IC50(MCF7)): 1.5 | IC50 ([8]; Homo sapiens, SCC-9, SCC9, alamarBlue, 72 h): 26.6 µM | Selectivity index ([8]; IC50(MRC5)/IC50(SCC-9)): 0.9 | Selectivity index ([8]; IC50(PBMC)/IC50(SCC-9)): 0.7 | IC50 [9]: 24.1 µM | IC50 [10]: 18.3 µM | reduction of the number of viable cells (HCT116 cells [11]; 3.5 μM, 24 h): 50.2% | reduction of the number of viable cells (HCT116 cells [11]; 3.5 μM, 48 h): 79.9% | reduction of the number of viable cells (HCT116 cells [11]; 7 μM, 24 h): 64.4% | reduction of the number of viable cells (HCT116 cells [11]; 7 μM, 48 h): 84.6% | reduction of the number of viable cells (HCT116 cells [11]; 14 μM, 24 h): 71.8% | reduction of the number of viable cells (HCT116 cells [11]; 14 μM, 48 h): 89.4% | number of nonviable cells (HCT116 cells [11]; HCT116, trypan blue, 3.5, 7, 14 μM, 24 and 48 h): No significant increase | mitochondrial depolarization (HCT116 cells [12]): induced mitochondrial depolarization | caspase-3 activation [13]: increased caspase-3 activation | GSH levels (HCT116 cells [14]): decreased | displacement of ethidium bromide from ctDNA (fluorescence intensity) (calf thymus DNA (ctDNA)): not able to decrease the ethidium bromide fluorescence
